Assay results from US8802723B2, “Metabolic syndrome-improving agent and medicine, supplement, functional food and food additive containing the same” (ARKRAY, Inc., priority 2005, dated 2014).

Experiments:
human PPARγ = target: T1, human PPARγ (Homo sapiens, UniProt P37231); assay: PPARγ ligand activity, GAL4-hPPARγ luciferase reporter assay in CV-1 cells; format: cell-based; settings: for PPARγ ligand activity: 24 h, relative to non-treatment control (DMSO) = 100, average ± standard error
T1 construct: expressed in transfected cells; host or cells: CV-1 cells (African green monkey kidney)
T1 sequence (P37231 204-505): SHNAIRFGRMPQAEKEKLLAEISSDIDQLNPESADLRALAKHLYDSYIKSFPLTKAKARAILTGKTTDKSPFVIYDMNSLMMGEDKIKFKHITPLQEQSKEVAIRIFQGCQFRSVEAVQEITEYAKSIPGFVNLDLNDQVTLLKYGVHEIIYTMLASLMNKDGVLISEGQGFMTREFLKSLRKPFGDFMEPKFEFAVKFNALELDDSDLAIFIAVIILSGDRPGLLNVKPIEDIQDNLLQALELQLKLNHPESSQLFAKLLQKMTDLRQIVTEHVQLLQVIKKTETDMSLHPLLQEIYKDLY
Experimental: (§1) CV-1 cells (cultured cells derived from kidneys of male African green monkeys) were implanted on 24-well culture plates so as to be […] and cultured at 37° C. in 5% CO2 for 24 hours. As a medium, DMEM (Dulbecco's Modified Eagle Medium; manufactured by GIBCO) containing 10% FBS (fetal bovine serum) and a 10 mg/mL penicillin streptomycin solution was used. Using the Lipofectamine system (trade name; manufactured by Invitrogen Corporation), pM-hPPARγ and p4× UASg-tk-luc were transfected. The above-noted pM-hPPARγ was a chimeric protein-expression plasmid binding GAL4 gene (amino acid sequence 1-147) and human PPARγ ligand-binding site gene (amino acid sequence 204-505), whereas the above-noted p4× UASg-tk-luc was a reporter plasmid containing four copies of a responsive element (UAS) of GAL 4 upstream of a luciferase gene. About 24 hours after the transfection, samples of aurapten at respective concentrations (0.1, 1.0, 10, 50 and 100 μM) were added to the above-described media, followed by 24 hour incubation. The above-noted samples were prepared by dissolving aurapten in dimethyl sulfoxide (DMSO). Instead of the aurapten, DMSO was added to non-treated control media. After the incubation, measurement was made using a Dual-Luciferase Reporter Gene Assay system (trade name; manufactured by Promega Corporation).
(§2) Similarly to the measurement group, as a control group, pM (a plasmid from which PPARγ ligand-binding site gene was removed) was used for measurement instead of pM-hPPARγ. For each sample, the ratio between average luminescence intensities of the measurement group and the control group (n=4) (measurement group/control group) was calculated, and an activity relative to the non-treatment control was determined as the PPARγ ligand activity of the sample.

PPARα = target: T2, PPARα (Homo sapiens, UniProt Q07869); assay: PPARα ligand activity, GAL4-hPPARα luciferase reporter assay in CV-1 cells; format: cell-based; settings: for PPARα ligand activity: 24 h, relative to non-treatment control (DMSO) = 100, average ± standard error
T2 construct: GAL4 (pM vector); expressed in transfected cells; host or cells: CV-1 cells (African green monkey kidney)
T2 sequence (Q07869 1-468): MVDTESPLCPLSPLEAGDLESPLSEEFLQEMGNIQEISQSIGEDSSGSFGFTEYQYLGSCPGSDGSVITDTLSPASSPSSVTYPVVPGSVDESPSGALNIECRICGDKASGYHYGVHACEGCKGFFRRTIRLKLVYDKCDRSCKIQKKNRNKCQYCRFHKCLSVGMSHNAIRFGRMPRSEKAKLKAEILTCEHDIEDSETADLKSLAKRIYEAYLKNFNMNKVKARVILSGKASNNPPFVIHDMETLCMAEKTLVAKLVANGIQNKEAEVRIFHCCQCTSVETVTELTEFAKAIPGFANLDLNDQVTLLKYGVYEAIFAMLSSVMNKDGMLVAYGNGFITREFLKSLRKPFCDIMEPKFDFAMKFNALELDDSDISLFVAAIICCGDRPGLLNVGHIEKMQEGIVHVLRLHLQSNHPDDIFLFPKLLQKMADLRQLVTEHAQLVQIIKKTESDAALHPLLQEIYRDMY
Experimental: as §1, §2
The PPARα ligand activity of aurapten was measured similarly to Example 1 except that pM-hPPARα was used instead of pM-hPPARγ and the aurapten concentrations were set to 0.1, 1.0, 10, 50 and 80 μM.

- effect on PPARγ activity (in words) (human PPARγ; 0.1-100 μM, increased along with the concentration): improved the activity of PPARγ
- PPARγ ligand activity (human PPARγ; aurapten 0.1 μM): 128 ± 8.5
- PPARγ ligand activity (human PPARγ; aurapten 1.0 μM): 113 ± 6.9
- PPARγ ligand activity (human PPARγ; aurapten 10 μM): 146 ± 17.0
- PPARγ ligand activity (human PPARγ; aurapten 50 μM): 245 ± 56.1
- PPARγ ligand activity (human PPARγ; aurapten 100 μM): 641 ± 84.2
- effect on PPARα activity (in words) (PPARα; 0.1-80 μM, increased in keeping with the concentration): improved the activity of PPARα
- PPARα ligand activity (PPARα; aurapten 0.1 μM): 234 ± 39.4
- PPARα ligand activity (PPARα; aurapten 1.0 μM): 139 ± 38.3
- PPARα ligand activity (PPARα; aurapten 10 μM): 302 ± 98.2
- PPARα ligand activity (PPARα; aurapten 50 μM): 409 ± 27.8
- PPARα ligand activity (PPARα; aurapten 80 μM): 1052 ± 232.9
SMILES: CC(C)=CCC/C(C)=C/COc1ccc2ccc(=O)oc2c1 [Aurapten, aurapten]
